In ChEMBL document CHEMBL1201862, “PubChem BioAssay data set” (2004):
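48-hour exposure; five concentrations; linearly interpolated endpoints. GI50 is the concentration that inhibits growth by half.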 Activity calls are given as the source filed them. No stated cut-off is given here; in the data, active = GI50 up to about 1.1 µM and inactive = higher.

Columns and labels:
Assay in all cases: inhibition of tumour cell growth, NCI panel, 48 h
[1] = system: KM12
[2] = system: MCF7
[3] = system: HT-29
[4] = system: OVCAR-5
[5] = system: HOP-62
[6] = system: OVCAR-4
[7] = system: A549
[8] = system: BT-549
[9] = system: Malme-3M
[10] = system: NCI/ADR-RES
[11] = system: SNB-19
[12] = system: DU-145
[13] = system: MDA-MB-435
[14] = system: UACC-257
[15] = system: K562
[16] = system: OVCAR-3
[17] = system: SR
[18] = system: CCRF-CEM
[19] = system: HOP-92

Compound | GI50 [1] | GI50 [2] | GI50 [3] | GI50 [4] | GI50 [5] | GI50 [6] | GI50 [7] | GI50 [8] | GI50 [9] | GI50 [10] | GI50 [11] | GI50 [12] | GI50 [13] | GI50 [14] | GI50 [15] | GI50 [16] | GI50 [17] | GI50 [18] | GI50 [19]
CN1CCN(CCCN2c3ccccc3Sc3ccc(C(F)(F)F)cc32)CC1 | 2.94 µM (inactive) | 4.61 µM (inactive) | 2.35 µM (inactive) | 11.2 µM (inactive) | 11.3 µM (inactive) | 8.81 µM (inactive) | 10.2 µM (inactive) | 12.1 µM (inactive) | 1.45 µM (inactive) | 8.22 µM (inactive) | 11.4 µM (inactive) | 10.5 µM (inactive) | 2.92 µM (inactive) | 1.91 µM (inactive) |  |  |  |  | 
CC(C)(C)OC(=O)NCCc1ccc(N)cc1 |  | > 100 µM (inactive) | > 100 µM (inactive) |  | > 100 µM (inactive) | > 100 µM (inactive) | > 100 µM (inactive) |  | > 100 µM (inactive) | 32.4 µM (inactive) | > 100 µM (inactive) | > 100 µM (inactive) | > 100 µM (inactive) | 72.8 µM (inactive) | 66.5 µM (inactive) | 19.9 µM (inactive) | 55.6 µM (inactive) | > 100 µM (inactive) | 
CO/N=C(\C(=O)O/C(=N/C1CCCCC1)NC1CCCCC1)c1csc(NC(c2ccccc2)(c2ccccc2)c2ccccc2)n1 | > 10 µM (inactive) | > 10 µM (inactive) | > 10 µM (inactive) | > 10 µM (inactive) | > 10 µM (inactive) | > 10 µM (inactive) | > 10 µM (inactive) | > 10 µM (inactive) | > 10 µM (inactive) | > 10 µM (inactive) | > 10 µM (inactive) | > 10 µM (inactive) |  | > 10 µM (inactive) | > 10 µM (inactive) | > 10 µM (inactive) | > 10 µM (inactive) | > 10 µM (inactive) | > 10 µM (inactive)
N#Cc1nn(C2OC(COC(=O)c3ccccc3)C(OC(=O)c3ccccc3)C2OC(=O)c2ccccc2)c2nc[nH]c(=O)c12 (stereo unspecified) |  | 93.5 µM (inactive) | 36.2 µM (inactive) | > 100 µM (inactive) | 90.2 µM (inactive) | 38.3 µM (inactive) | 39.6 µM (inactive) |  | 36.1 µM (inactive) | 66.4 µM (inactive) | 72.8 µM (inactive) | 42.7 µM (inactive) | 46.2 µM (inactive) | > 100 µM (inactive) | 35.7 µM (inactive) | 46 µM (inactive) | 30.9 µM (inactive) | 18.5 µM (inactive) | 
CC(C)CNC(=O)CCc1cccc2c1oc1c(CCN)cccc12 | 11.9 µM (inactive) | 20.6 µM (inactive) | 9.31 µM (inactive) | 15.1 µM (inactive) | 18.5 µM (inactive) | 18 µM (inactive) | 18.5 µM (inactive) |  | 16.6 µM (inactive) | 18.7 µM (inactive) | 4.35 µM (inactive) | 17.9 µM (inactive) | 12.2 µM (inactive) | 11.7 µM (inactive) | 1.98 µM (inactive) | 5.65 µM (inactive) | 8.43 µM (inactive) | 3.9 µM (inactive) | 5.7 µM (inactive)
CCOC(=O)/C=C/n1c2ccccc2c(=O)c2cc(OC)ccc21 | > 100 µM (inactive) |  | 38.5 µM (inactive) | > 100 µM (inactive) | > 100 µM (inactive) | > 100 µM (inactive) | > 100 µM (inactive) |  | > 100 µM (inactive) |  | 61.2 µM (inactive) |  |  | > 100 µM (inactive) | > 100 µM (inactive) | > 100 µM (inactive) | 28.2 µM (inactive) | 50.8 µM (inactive) | 57.9 µM (inactive)
CC(=O)O[C@H]1[C@@H](N2CCN(C)CC2)C[C@H]2[C@@H]3CC=C4C[C@@H](N5CCCC5)CC[C@]4(C)[C@H]3CC[C@@]21C | 22.4 µM (inactive) | > 100 µM (inactive) | 4.14 µM (inactive) | 34.5 µM (inactive) | 46.5 µM (inactive) | > 100 µM (inactive) | 37.7 µM (inactive) | > 100 µM (inactive) | 26.1 µM (inactive) | 98.4 µM (inactive) | > 100 µM (inactive) |  | 24.6 µM (inactive) | 21.1 µM (inactive) | 11.2 µM (inactive) | 88.7 µM (inactive) | < 0.01 µM (active) | 30.4 µM (inactive) | > 100 µM (inactive)
COC(=O)[C@H](Cc1ccccc1)NC(=O)/C(=C/C(C)C)NC(=O)[C@H](CCSC)NC=O | > 100 µM (inactive) |  | > 100 µM (inactive) |  | > 100 µM (inactive) | > 100 µM (inactive) | > 100 µM (inactive) |  |  |  | > 100 µM (inactive) |  |  | > 100 µM (inactive) | > 100 µM (inactive) | > 100 µM (inactive) | > 100 µM (inactive) | > 100 µM (inactive) | > 100 µM (inactive)
COC(=O)C(C(=O)C(=O)Nc1c(C)cccc1C(C)(C)C)c1nc2ccc(Cl)cc2nc1O (stereo unspecified) | > 100 µM (inactive) | > 100 µM (inactive) | > 100 µM (inactive) | > 100 µM (inactive) | > 100 µM (inactive) | > 100 µM (inactive) | > 100 µM (inactive) | > 100 µM (inactive) | > 100 µM (inactive) | > 100 µM (inactive) | 86.5 µM (inactive) |  | > 100 µM (inactive) | > 100 µM (inactive) | > 100 µM (inactive) | > 100 µM (inactive) | > 100 µM (inactive) | > 100 µM (inactive) | > 100 µM (inactive)
Cc1cc(S(=O)(=O)Nc2nc(N)nc(N(C)C)n2)c(SCC(=O)O)cc1Cl | > 10 µM (inactive) | > 10 µM (inactive) | > 10 µM (inactive) | > 10 µM (inactive) | > 10 µM (inactive) | > 10 µM (inactive) | > 10 µM (inactive) | > 10 µM (inactive) | > 10 µM (inactive) | > 10 µM (inactive) | > 10 µM (inactive) | > 10 µM (inactive) |  | > 10 µM (inactive) | > 10 µM (inactive) | > 10 µM (inactive) | > 10 µM (inactive) | > 10 µM (inactive) | > 10 µM (inactive)
CC(C)OC(=O)c1cc(NC(=O)C(C)(C)C)c(F)cc1Cl | > 100 µM (inactive) |  | > 100 µM (inactive) | > 100 µM (inactive) | > 100 µM (inactive) | > 100 µM (inactive) | > 100 µM (inactive) |  | > 100 µM (inactive) |  | > 100 µM (inactive) |  |  | > 100 µM (inactive) | > 100 µM (inactive) | > 100 µM (inactive) |  | > 100 µM (inactive) | > 100 µM (inactive)
S=C(N/N=C/c1ccccc1)NC12CC3CC(CC(C3)C1)C2 | 36.2 µM (inactive) |  | 5.31 µM (inactive) | 63.7 µM (inactive) | > 100 µM (inactive) | 42.2 µM (inactive) | 27.8 µM (inactive) |  |  |  | > 100 µM (inactive) |  |  | 26.1 µM (inactive) | 9.27 µM (inactive) | 27.2 µM (inactive) | 18.2 µM (inactive) | 19.6 µM (inactive) | 6.18 µM (inactive)
COC(=O)/C=C\c1ccc2c(c1)CC1(C2)Cc2ccc(/C=C/C(=O)OC)cc2C1 (stereo unspecified) | > 31.6 µM (inactive) | 21.2 µM (inactive) | > 31.6 µM (inactive) | > 31.6 µM (inactive) | 15.2 µM (inactive) | 22.8 µM (inactive) | > 31.6 µM (inactive) |  | 29.4 µM (inactive) | > 31.6 µM (inactive) | 27 µM (inactive) | > 100 µM (inactive) | > 31.6 µM (inactive) | > 31.6 µM (inactive) | > 31.6 µM (inactive) | > 31.6 µM (inactive) | 5.57 µM (inactive) | > 31.6 µM (inactive) | 28.4 µM (inactive)
COc1ccccc1Nc1nc(NNC(=O)Cc2ccccc2)nc(NNC(=O)c2ccncc2)n1 | > 10 µM (inactive) | > 10 µM (inactive) | > 10 µM (inactive) |  | > 10 µM (inactive) | > 10 µM (inactive) | > 10 µM (inactive) | > 10 µM (inactive) | > 10 µM (inactive) | > 10 µM (inactive) |  | > 10 µM (inactive) |  | > 10 µM (inactive) | > 10 µM (inactive) |  | > 10 µM (inactive) | > 10 µM (inactive) | > 10 µM (inactive)
COC(=O)[C@@H]1CN(C(=O)CCc2ccccc2)C(=O)N1C(=O)OCc1ccccc1 | > 100 µM (inactive) | > 100 µM (inactive) | > 100 µM (inactive) | > 100 µM (inactive) | > 100 µM (inactive) | > 100 µM (inactive) | > 100 µM (inactive) |  | > 100 µM (inactive) | > 100 µM (inactive) | > 100 µM (inactive) | > 100 µM (inactive) | > 100 µM (inactive) | > 100 µM (inactive) | > 100 µM (inactive) | > 100 µM (inactive) | > 100 µM (inactive) | > 100 µM (inactive) | > 100 µM (inactive)
CC1(C)[C@@H](Cn2cnc3c(O)nc(N)nc32)CC[C@@]1(C)CO | > 100 µM (inactive) | > 100 µM (inactive) |  | > 100 µM (inactive) | > 100 µM (inactive) | > 100 µM (inactive) | > 100 µM (inactive) |  |  | > 100 µM (inactive) | > 100 µM (inactive) | > 100 µM (inactive) | > 100 µM (inactive) | > 100 µM (inactive) | > 100 µM (inactive) | > 100 µM (inactive) |  | > 100 µM (inactive) | > 100 µM (inactive)
COc1ccc(-c2cc(=O)c3c(O)c(OC)c(OC)c(OC)c3o2)cc1OC [5-DEMETHYLNOBILETIN] | > 100 µM (inactive) | > 100 µM (inactive) | > 100 µM (inactive) | > 100 µM (inactive) | 19.5 µM (inactive) | > 100 µM (inactive) | > 100 µM (inactive) | 50.9 µM (inactive) | > 100 µM (inactive) | 14.5 µM (inactive) | > 100 µM (inactive) | > 100 µM (inactive) |  | > 100 µM (inactive) | > 100 µM (inactive) | > 100 µM (inactive) | > 100 µM (inactive) | > 100 µM (inactive) | 3.73 µM (inactive)
